{"source": "patent EP0091181A2", "about": "“Aroyl pyrrolizine compounds, process for their preparation and pharmaceutical compositions containing them” (BEECHAM GROUP PLC, priority 1982, dated 1983)", "key": {"OLAC Wister male rats": {"system": "OLAC Wister male rats", "assay": "Carrageenin test (rat paw oedema)", "assay_type": "in vivo", "details": "for Paw volume ± s.e. / % Inhi-bition: paw volume 3 hours after carrageenin; for Paw volume ± s.e.: control 85.8 ± 9.4", "method": "1. Activity in the Carrageenin Test\n(§1) Groups of 8 OLAC Wister male rats (140 - 170 g) received the compound of Example 1 orally 1 hour before 0.1 ml of 0.5% λ carrageenin injected into the right hind paw. Paw volumes were measured by mercury displacement 3 hours after carrageenin."}, "Gastric irritancy test": {"assay": "Gastric irritancy test", "assay_type": "in vivo, rats", "details": "rat, in vivo, po", "method": "(§2) 2. Gastric Irritancy Test\n(§3) Groups of OLAC Wistar female rats (130 - 160 g) were fasted overnight (18 hours) before receiving orally the compound of Example 1. 4 Hours later the stomachs were removed and inspected for the presence of erosion of the gastric mucosa."}, "OLAC Wistar female rats": {"system": "OLAC Wistar female rats", "assay": "Gastric irritancy test", "assay_type": "in vivo", "details": "fasted rats, stomachs inspected 4 hours later", "method": "as §2, §3"}, "[1]": {"assay": "Therapeutic ratio from the carrageenin test and the gastric irritancy test", "assay_type": "in vivo, rats", "details": "from the two tests (gastric irritancy ED50 / carrageenin ED25)", "method": "as §1, §3\nFrom these two tests the therapeutic ratio for the compound of formula (EI) was 41.0."}}, "data": [{"smiles": "CC(=O)CC1CCn2c(C(=O)c3ccccc3)ccc21", "note": "(centres unmarked) [Example 1, 1-(5-Benzoyl-2-3-dihydro-1H-pyrrolazin-1-yl)-propan-2-one]", "values": [{"measurement": "ED25", "setting": "OLAC Wister male rats; Rattus norvegicus, oral, carrageenin paw volume, rats", "result": 0.75, "unit": "mg/kg"}, {"measurement": "Paw volume ± s.e.", "setting": "OLAC Wister male rats; oral dose 0.1 mg/kg 1 hour before carrageenin", "result": "92.6 ± 4.6"}, {"measurement": "% Inhi-bition", "setting": "OLAC Wister male rats; oral dose 0.1 mg/kg", "result": -8.0, "unit": "%"}, {"measurement": "Paw volume ± s.e.", "setting": "OLAC Wister male rats; oral dose 0.5 mg/kg 1 hour before carrageenin", "result": "73.4 ± 7.8"}, {"measurement": "% Inhi-bition", "setting": "OLAC Wister male rats; oral dose 0.5 mg/kg", "result": 14.4, "unit": "%"}, {"measurement": "% Inhi-bition", "setting": "OLAC Wister male rats; oral dose 2.5 mg/kg", "result": 47.4, "unit": "%"}, {"measurement": "TD50 at 4 h", "setting": "Gastric irritancy test", "result": 30.8, "unit": "mg/kg"}, {"measurement": "Proportion of rats with gas-tric erosions", "setting": "OLAC Wistar female rats; oral dose 3.7 mg/kg", "result": "0/8"}, {"measurement": "Proportion of rats with gas-tric erosions", "setting": "OLAC Wistar female rats; oral dose 11.2 mg/kg", "result": "1/8"}, {"measurement": "Proportion of rats with gas-tric erosions", "setting": "OLAC Wistar female rats; oral dose 33.6 mg/kg", "result": "4/8"}, {"measurement": "therapeutic ratio", "setting": "[1]", "result": 41.0}]}]}
